The results in this text go back to patent publication US20240327406A1, “POTASSIUM CHANNEL MODULATORS” (Autifony Therapeutics Limited, priority 2021, published 2024).

The assay concerns the target T1, human Kv3.1 channels (hKv3.1) (Homo sapiens, UniProt P48547).
T1 sequence (P48547 1-501 limits assumed): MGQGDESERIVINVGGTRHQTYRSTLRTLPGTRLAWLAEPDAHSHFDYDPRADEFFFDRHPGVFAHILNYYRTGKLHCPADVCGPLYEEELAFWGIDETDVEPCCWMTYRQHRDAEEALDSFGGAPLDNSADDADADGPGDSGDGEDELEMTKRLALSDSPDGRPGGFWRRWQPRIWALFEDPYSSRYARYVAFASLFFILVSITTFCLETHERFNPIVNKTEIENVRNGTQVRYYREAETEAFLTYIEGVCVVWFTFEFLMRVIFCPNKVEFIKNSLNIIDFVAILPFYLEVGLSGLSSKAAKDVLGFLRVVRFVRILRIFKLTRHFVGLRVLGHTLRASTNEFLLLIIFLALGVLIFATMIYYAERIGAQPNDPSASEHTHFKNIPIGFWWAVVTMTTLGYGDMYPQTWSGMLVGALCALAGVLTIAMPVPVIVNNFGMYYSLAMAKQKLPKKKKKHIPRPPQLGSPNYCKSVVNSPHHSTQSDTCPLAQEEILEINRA
Nature of the assay: Measurement of Kv3 channel modulation: Kv3.1 assay (IonWorks Quattro whole-cell electrophysiology). As to conditions: for Kv3.1 max R %: normalised to maximum effect of reference compound (50 microM). The assay is classed as cell-based. As to the method: The ability of the compounds of the invention to modulate the voltage-gated potassium channel subtypes Kv3.4/Kv3.3/Kv3.2/Kv3.1 may be determined using the following assay. Analogous methods may be used to investigate the ability of the compounds of the invention to modulate other channel subtypes.
Human embryonic kidney (HEK)-hKv3.1 cell line is generated by transfecting HEK-293 cells with an expression vector with human Kv3.1 (NM_004976.4). Cells are cultured with MEM supplemented with 10% Heat-Inactivated FBS, 2 mM L-glutamine, 1% Penicillin-Streptomycin, and 0.6 mg/ml of Geneticin (G418). HEK-hKv3.1b cells were amplified in T175 cm2 flask at 37° C. with 5% CO2, using MEM amplification medium, containing the G418 selection antibiotic (0.6 mg/ml). Cells were detached every 3-4 days, using DPBS to wash twice the flask, then TrypLE to dislodge the cells, and re-plated at a density of 2-4×10^6 cells/flask.
The day of the experiment, cells are removed from the incubator and the culture medium removed. Cells are washed with 5 ml of Dulbecco's PBS (DPBS) calcium and magnesium free and detached by the addition of 3 ml Versene (Invitrogen, Italy) followed by a brief incubation at 37° C. for 5 minutes. The flask is tapped to dislodge cells and 10 ml of DPBS containing calcium and magnesium is added to prepare a cell suspension. The cell suspension is then placed into a 15 ml centrifuge tube and centrifuged for 2 min at 1200 rpm. After centrifugation, the supernatant is removed and the cell pellet re-suspended in 4 ml of DPBS containing calcium and magnesium using a 5 ml pipette to break up the pellet. Cell suspension volume is then corrected to give a cell concentration for the assay of approximately 3 million cells per ml.
Experiments are conducted at r.t. using IonWorks Quattro™ planar array electrophysiology technology (Molecular Devices Corp.) with PatchPlate™ PPC. Stimulation protocols and data acquisition are carried out using a microcomputer (Dell Pentium 4). Planar electrode hole resistances (Rp) are determined by applying a 10 mV voltage step across each well. These measurements are performed before cell addition. After cell addition and seal formation, a seal test is performed by applying a voltage step from −80 mV to −70 mV for 160 ms. Following this, amphotericin-B solution is added to the intracellular face of the electrode to achieve intracellular access. Cells are held at −70 mV. Leak subtraction is conducted in all experiments by applying 50 ms hyperpolarizing (10 mV) prepulses to evoke leak currents followed by a 20 ms period at the holding potential before test pulses.
For hKv3.2 and hKv3.1, assays from the holding potential of −70 mV, a first test pulse at −15 mV was applied for 100 ms and after 100 ms at −70 mV a second pulse at +40 mV was applied for 50 ms. Cells were then maintained for 100 ms at −100 mV and another pulse from […] to +40 mV (duration 50 ms) was applied to clamp later the voltage at −40 mV during 200 ms
The intracellular solution contains the following (in mM): K-gluconate 100, KCl 54, MgCl2 3.2, HEPES 5, adjusted to pH 7.3 with KOH. Amphotericin-B solution is prepared as 50 mg/ml stock solution in DMSO and diluted to a final working concentration of 0.1 mg/ml in intracellular solution.
Compounds of use in the invention (or reference compounds such as N-cyclohexyl-N-[(7,8-dimethyl-2-oxo-1,2-dihydro-3-quinolinyl)methyl]-N′-phenylurea) are dissolved in dimethylsulfoxide (DMSO) at a stock concentration of 10 mM. […] Each dilution (1 μL) is transferred to another compound plate and external solution containing 0.05% pluronic acid (66 μL) is added. 3.5 μL from each plate containing a compound of the invention is added and incubated with the cells during the IonWorks Quattro™ experiment. The final assay dilution is 200 and the final compound concentrations are in the range 50 μM to 50 nM.
A general note: The patch-clamp technique gives a direct electrical read-out from membranes.

The mark [1] stands for this setting: Table 2, Example compounds, rounded to one decimal place, some compounds with two data sets (n given in cell), read-out: Kv3.1 pEC50 (converted).
Where [2] appears, read: Table 3, Reference Examples and corresponding Examples, rounded to one decimal place, read-out: Kv3.1 pEC50 (converted).

Several values for one entry are separate records, joined by “and”; a condition that tells them apart may be missing. Equal entries are not always repeated. Where two headings read alike, the source gives them in different places.

In the case of `Cc1ccc(Oc2ccc(-n3c(=O)[nH]c4cccnc43)cn2)c2c1OCC21CC1` [Example 1, 3-[6-(7-methylspiro[2H-benzofuran-3,1′-cyclopropane]-4-yl)oxy-3-pyridyl]-1H-imidazo[4,5-b]pyridin-2-one], the “Kv3.1 max R %” value (Table 2, Example compounds) came to 148%. Further, the EC50 under setting [1] is 200 nM and the EC50 under setting [2] was 200 nM.

Consider `Cc1ccc(Oc2ccc(-n3c(=O)[nH]c4c(C)ccnc43)cn2)c2c1OCC21CC1` [Example 2, 7-methyl-3-[6-(7-methylspiro[2H-benzofuran-3,1′-cyclopropane]-4-yl)oxy-3-pyridyl]-1H-imidazo[4,5-b]pyridin-2-one], for which the “Kv3.1 max R %” value (Table 2, Example compounds) amounted to 83%. Besides, under setting [1], the EC50 is 158 nM.

Where the note is “Kv3.1 pEC50, Table 2, Example compounds, rounded to one decimal place, some compounds with two data sets (n given in cell)”, `O=c1[nH]c2cccnc2n1-c1ccc(Oc2cccc3c2C2(CC2)CO3)nc1` [Example 3, 3-(6-spiro[2H-benzofuran-3,1′-cyclopropane]-4-yloxy-3-pyridyl)-1H-imidazo[4,5-b]pyridin-2-one] had an EC50 of 100 nM. Also, the “Kv3.1 max R %” value (Table 2, Example compounds) is 197%.

Take `Cc1ccnc2c1[nH]c(=O)n2-c1ccc(Oc2cccc3c2C2(CC2)CO3)nc1` [Example 5, 7-methyl-3-(6-spiro[2H-benzofuran-3,1′-cyclopropane]-4-yloxy-3-pyridyl)-1H-imidazo[4,5-b]pyridin-2-one]: the “Kv3.1 max R %” value (Table 2, Example compounds) is 132%. For the same molecule, the EC50 under setting [1] was 316 nM.

As to `O=c1[nH]c2cccnc2n1-c1ccc(Oc2cccc3c2C2(CC2)CO3)cn1` [Example 6, 3-(5-spiro[2H-benzofuran-3,1′-cyclopropane]-4-yloxy-2-pyridyl)-1H-imidazo[4,5-b]pyridin-2-one], the “Kv3.1 max R %” value (Table 2, Example compounds) came out at 221%. In addition, the EC50 under setting [1] was 2000 nM.

With `O=c1[nH]c2cccnc2n1-c1ccc(Oc2cccc(OC(F)(F)F)c2)nc1` [Example 7, 3-[6-[3-(trifluoromethoxy)phenoxy]-3-pyridyl]-1H-imidazo[4,5-b]pyridin-2-one], the “Kv3.1 max R %” value (Table 2, Example compounds) was 89% and 96%. Further, the EC50 under setting [1] is 501 nM and 398 nM; the EC50 under setting [2] was 398 nM; the EC50 (Table 5, Example compounds, read-out: Kv3.1 pEC50 (converted)) is 398 nM.

For `CC1(C)COc2cccc(Oc3cnc(-n4c(=O)[nH]c5cccnc54)cn3)c21` [Example 9, 3-[5-[(3,3-dimethyl-2H-benzofuran-4-yl)oxy]pyrazin-2-yl]-1H-imidazo[4,5-b]pyridin-2-one], the “Kv3.1 max R %” value (Table 2, Example compounds) worked out at 147%. For the same molecule, the EC50 under setting [1] is 1260 nM.

Regarding `O=c1[nH]c2cccnc2n1-c1cnc(Oc2cccc(OC(F)(F)F)c2)cn1` [Example 10, 3-[5-[3-(trifluoromethoxy)phenoxy]pyrazin-2-yl]-1H-imidazo[4,5-b]pyridin-2-one], the “Kv3.1 max R %” value (Table 2, Example compounds) was determined as 94%. Also, the EC50 under setting [1] was 2000 nM.

Take `Cc1ccc(Oc2cnc(-n3c(=O)[nH]c4cccnc43)cn2)c2c1OCC21CC1` [Example 11, 3-[5-(7-methylspiro[2H-benzofuran-3,1′-cyclopropane]-4-yl)oxypyrazin-2-yl]-1H-imidazo[4,5-b]pyridin-2-one]: the “Kv3.1 max R %” value (Table 2, Example compounds) came to 205%. Under setting [1], the EC50 is 316 nM.

For the molecule `CC1(C)COc2cccc(Oc3ccc(-n4c(=O)[nH]c5cccnc54)cn3)c21` [Example 12, 3-[6-[(3,3-dimethyl-2H-benzofuran-4-yl)oxy]-3-pyridyl]-1H-imidazo[4,5-b]pyridin-2-one], the “Kv3.1 max R %” value (Table 2, Example compounds) was 164%. Under setting [1], the EC50 is 316 nM.

Turning to `N#Cc1ccc(Oc2ccc(-n3c(=O)[nH]c4cccnc43)cn2)cc1OC(F)(F)F` [Example 14, 4-[[5-(2-oxo-1H-imidazo[4,5-b]pyridin-3-yl)-2-pyridyl]oxy]-2-(trifluoromethoxy)benzonitrile], the “Kv3.1 max R %” value (Table 2, Example compounds) is on record as 124%. Further, under setting [1], the EC50 was 1000 nM.

For the molecule `Cc1ccnc2c1[nH]c(=O)n2-c1cnc(Oc2cccc3c2C2(CC2)CO3)nc1` [Example 15, 7-methyl-3-(2-spiro[2H-benzofuran-3,1′-cyclopropane]-4-yloxypyrimidin-5-yl)-1H-imidazo[4,5-b]pyridin-2-one], where the note is “Table 2, Example compounds”, the “Kv3.1 max R %” value amounted to 201%. Moreover, under setting [1], the EC50 is 1000 nM.

Consider `COc1cccc(Oc2ncc(-n3c(=O)[nH]c4cccnc43)cn2)c1` [Example 16, 3-[2-(3-methoxyphenoxy)pyrimidin-5-yl]-1H-imidazo[4,5-b]pyridin-2-one], for which the “Kv3.1 max R %” value (Table 2, Example compounds) is 124%. Under setting [1], the EC50 was 3160 nM.

For `Cn1cc2[nH]c(=O)n(-c3ccc(Oc4cccc5c4C4(CC4)CO5)nc3)c2n1` [Example 18, 2-methyl-6-(6-spiro[2H-benzofuran-3,1′-cyclopropane]-4-yloxy-3-pyridyl)-4H-imidazo[4,5-c]pyrazol-5-one], the “Kv3.1 max R %” value (Table 2, Example compounds) turned out to be 148%. The EC50 under setting [1] is 251 nM.

For the molecule `Cc1ccc(Oc2ccc(-n3c(=O)[nH]c4cn(C)nc43)cn2)c2c1OCC21CC1` [Example 19, 2-methyl-6-[6-(7-methylspiro[2Hbenzofuran-3,1′-cyclopropane]-4-yl)oxy-3-pyridyl]-4H-imidazo[4,5-c]pyrazol-5-one], the “Kv3.1 max R %” value (Table 2, Example compounds) amounted to 99%. Besides, the EC50 under setting [1] is 316 nM.

With `Cn1cc2[nH]c(=O)n(-c3ccc(Oc4cccc5c4C(C)(C)CO5)nc3)c2n1` [Example 20, 6-[6-[(3,3-dimethyl-2H-benzofuran-4-yl)oxy]-3-pyridyl]-2-methyl-4H-imidazo[4,5-c]pyrazol-5-one], where the note is “Table 2, Example compounds”, the “Kv3.1 max R %” value was 145% and 155%. Moreover, the EC50 under setting [1] was 794 nM and 631 nM.

As to `Cn1cc2[nH]c(=O)n(-c3cnc(Oc4cccc5c4C4(CC4)CO5)cn3)c2n1` [Example 21, 2-methyl-6-(5-spiro[2H-benzofuran-3,1′-cyclopropane]-4-yloxypyrazin-2-yl)-4H-imidazo[4,5-c]pyrazol-5-one], the “Kv3.1 max R %” value (Table 2, Example compounds) turned out to be 96%. Under setting [1], the EC50 was 10000 nM.

Consider `Cn1cc2[nH]c(=O)n(-c3cnc(Oc4cccc5c4C4(CC4)CO5)nc3)c2n1` [Example 22, 2-methyl-6-(2-spiro[2H-benzofuran-3,1′-cyclopropane]-4-yloxypyrimidin-5-yl)-4H-imidazo[4,5-c]pyrazol-5-one], for which, under “Table 2, Example compounds”, the “Kv3.1 max R %” value is on record as 166%. Under setting [1], the EC50 was 501 nM.

As for `CC1(C)COc2cccc(Oc3ncc(-n4c(=O)[nH]c5ccncc54)cn3)c21` [Example 23, 3-[2-[(3,3-dimethyl-2H-benzofuran-4-yl)oxy]pyrimidin-5-yl]-1H-imidazo[4,5-c]pyridin-2-one], where the note is “Table 2, Example compounds”, the “Kv3.1 max R %” value was 101% and 107%. Besides, the EC50 is, setting by setting: under setting [1], 10000 nM and 7940 nM; under setting [2], 7940 nM.
